Molecular target: T1, connexin 43 (Cx43) hemichannel (Homo sapiens, UniProt P17302)
T1 construct: gene GJA1; human Cx43 tagged with GFP (hCx43-GFP)
Test: TO-PRO-3 dye uptake in HeLa cells transfected with hCx43-GFP, Ca2+-free HBSS
Assay type: cell-based

T1 sequence (P17302 2-382): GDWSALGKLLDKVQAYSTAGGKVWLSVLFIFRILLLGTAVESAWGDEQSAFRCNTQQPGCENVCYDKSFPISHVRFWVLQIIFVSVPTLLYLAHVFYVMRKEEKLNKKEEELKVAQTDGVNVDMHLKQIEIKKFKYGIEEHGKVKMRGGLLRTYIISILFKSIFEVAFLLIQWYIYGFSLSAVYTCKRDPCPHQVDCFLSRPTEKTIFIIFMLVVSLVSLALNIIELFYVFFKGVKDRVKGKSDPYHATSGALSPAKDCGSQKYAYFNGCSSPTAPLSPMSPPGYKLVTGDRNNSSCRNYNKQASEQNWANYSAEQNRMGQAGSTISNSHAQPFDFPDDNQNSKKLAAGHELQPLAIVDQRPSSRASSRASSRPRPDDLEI

COc1cc2c(cc1O)C[C@H]1c3c(cc(O)c(OC)c3-2)CCN1C [boldine]
IC50: 12.5 µM
